The source made the active and inactive calls. The rule behind the calls is not given here.
Tests used:
Type in all cases: functional, tissue-based
[1] = target: T1, Substance-K receptor (Cavia porcellus) (UniProt Q64077); test: Antagonist activity at NK2 receptor in guinea pig trachea as inhibition of [beta-Ala8]NKA(4-10)-induced bronchoconstriction up to 1 uM
T1 sequence (whole entry): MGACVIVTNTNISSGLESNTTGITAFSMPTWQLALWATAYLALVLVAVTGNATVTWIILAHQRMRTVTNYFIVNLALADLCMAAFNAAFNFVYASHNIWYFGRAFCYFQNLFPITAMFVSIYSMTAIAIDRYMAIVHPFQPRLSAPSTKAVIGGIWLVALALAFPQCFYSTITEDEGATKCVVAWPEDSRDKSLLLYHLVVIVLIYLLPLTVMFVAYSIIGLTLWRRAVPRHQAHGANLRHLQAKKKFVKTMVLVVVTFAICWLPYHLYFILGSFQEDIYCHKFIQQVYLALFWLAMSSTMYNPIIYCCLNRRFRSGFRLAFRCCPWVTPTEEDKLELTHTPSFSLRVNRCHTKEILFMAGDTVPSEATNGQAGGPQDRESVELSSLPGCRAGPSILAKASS

[2] = target: Substance-P receptor (Cavia porcellus) (UniProt P30547); test: Antagonist activity at NK1 receptor in guinea pig trachea as inhibition of ASM-SP-induced bronchoconstriction up to 1 uM
Chain of Substance-P receptor (Cavia porcellus) (P30547 whole entry): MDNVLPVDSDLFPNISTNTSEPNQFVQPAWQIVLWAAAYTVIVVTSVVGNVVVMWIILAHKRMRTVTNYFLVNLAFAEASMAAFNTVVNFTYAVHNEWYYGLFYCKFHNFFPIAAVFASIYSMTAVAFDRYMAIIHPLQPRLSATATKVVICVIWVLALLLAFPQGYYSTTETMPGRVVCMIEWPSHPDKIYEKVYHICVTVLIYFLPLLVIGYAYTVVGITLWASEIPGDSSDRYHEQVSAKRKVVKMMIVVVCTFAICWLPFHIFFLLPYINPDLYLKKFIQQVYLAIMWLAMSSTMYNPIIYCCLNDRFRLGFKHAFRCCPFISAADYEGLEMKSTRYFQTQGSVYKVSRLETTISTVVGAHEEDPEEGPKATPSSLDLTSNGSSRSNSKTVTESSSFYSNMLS

[3] = target: Substance-P receptor (Cavia porcellus) (UniProt P30547); test: Antagonist activity at NK1 receptor in guinea pig trachea as inhibition of ASM-SP-induced bronchoconstriction relative to control; set-up: scale not given: the % may be the effect or the level left
[4] = target: T1, Substance-K receptor (Cavia porcellus); test: Antagonist activity at NK2 receptor in guinea pig trachea as inhibition of [beta-Ala8]NKA(4-10)-induced bronchoconstriction relative to control; set-up: scale not given: the % may be the effect or the level left
[5] = target: Substance-P receptor (Cavia porcellus) (UniProt P30547); test: Antagonist activity at NK1 receptor in guinea pig trachea as inhibition of ASM-SP-induced bronchoconstriction
[6] = target: T1, Substance-K receptor (Cavia porcellus); test: Antagonist activity at NK2 receptor in guinea pig trachea as inhibition of [beta-Ala8]NKA(4-10)-induced bronchoconstriction

| Compound | Activity [1] | Activity [2] | Activity [3] [%] | Activity [4] [%] | pKb [5] | pKb [6] |
| --- | --- | --- | --- | --- | --- | --- |
| CN(C(=O)c1cc(N=C=S)cc(N=C=S)c1)[C@@H](/C=C/C(=O)N[C@@H]1CCCCNC1=O)Cc1ccc(Cl)c(Cl)c1 | inactive | inactive |  |  |  |  |
| CN(C(=O)c1cc(NC(=O)CBr)cc(NC(=O)CBr)c1)[C@@H](/C=C/C(=O)N[C@@H]1CCCCNC1=O)Cc1ccc(Cl)c(Cl)c1 | inactive | inactive |  |  |  |  |
| CN(C(=O)c1cc([N+](=O)[O-])cc([N+](=O)[O-])c1)[C@@H](/C=C/C(=O)N[C@@H]1CCCCNC1=O)Cc1ccc(Cl)c(Cl)c1 |  |  | 96.1 | 96.1 | 8.4 | 7.87 |
| CN(C(=O)c1cc(C(F)(F)F)cc(C(F)(F)F)c1)[C@@H](/C=C/C(=O)N[C@@H]1CCCCNC1=O)Cc1ccc(Cl)c(Cl)c1 |  |  | 89.4 | 97 | 9.2 | 7.43 |
| COC(=S)Nc1cc(NC(=S)OC)cc(C(=O)N(C)[C@@H](/C=C/C(=O)N[C@@H]2CCCCNC2=O)Cc2ccc(Cl)c(Cl)c2)c1 | inactive | inactive |  |  |  |  |
| CN(C(=O)c1cc(N)cc(N)c1)[C@@H](/C=C/C(=O)N[C@@H]1CCCCNC1=O)Cc1ccc(Cl)c(Cl)c1 | inactive | inactive |  |  |  |  |
| CC(=O)Nc1cc(NC(C)=O)cc(C(=O)N(C)[C@@H](/C=C/C(=O)N[C@@H]2CCCCNC2=O)Cc2ccc(Cl)c(Cl)c2)c1 | inactive | inactive |  |  |  |  |

From ChEMBL document CHEMBL1144575, “Design and synthesis of 3,5-disubstituted benzamide analogues of DNK333 as dual NK1/NK2 receptor probes” (Bioorg Med Chem Lett, 2007)
